Laboratory results: patent US12252457B2, “Compositions and methods for reducing tactile dysfunction, anxiety, and social impairment” (President and Fellows of Harvard College, priority 2018, dated 2025)
“Also recorded” adds a separate entry of the source. Counter-ions that a name gives are not always drawn. Like-named read-outs stand apart in the source and are kept apart here.

Target: T1, human GABA-A α2β3γ2 ion channels (Homo sapiens, UniProt P28472+P47869)
T1 construct: expressed in transfected cells
T1 sequence (P47869 29-451): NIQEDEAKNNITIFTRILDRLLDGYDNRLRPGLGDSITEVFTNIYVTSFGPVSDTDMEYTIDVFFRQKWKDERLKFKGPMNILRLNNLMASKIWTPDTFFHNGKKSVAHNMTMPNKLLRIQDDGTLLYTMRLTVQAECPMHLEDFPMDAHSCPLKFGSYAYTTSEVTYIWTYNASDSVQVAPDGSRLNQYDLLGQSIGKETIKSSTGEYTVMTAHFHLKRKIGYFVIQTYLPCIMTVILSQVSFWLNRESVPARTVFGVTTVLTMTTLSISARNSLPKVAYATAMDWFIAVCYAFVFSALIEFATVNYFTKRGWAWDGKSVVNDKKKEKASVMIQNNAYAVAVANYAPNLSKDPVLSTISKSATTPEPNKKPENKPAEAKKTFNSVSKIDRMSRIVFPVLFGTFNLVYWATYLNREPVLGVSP
T1 sequence (P28472 26-473): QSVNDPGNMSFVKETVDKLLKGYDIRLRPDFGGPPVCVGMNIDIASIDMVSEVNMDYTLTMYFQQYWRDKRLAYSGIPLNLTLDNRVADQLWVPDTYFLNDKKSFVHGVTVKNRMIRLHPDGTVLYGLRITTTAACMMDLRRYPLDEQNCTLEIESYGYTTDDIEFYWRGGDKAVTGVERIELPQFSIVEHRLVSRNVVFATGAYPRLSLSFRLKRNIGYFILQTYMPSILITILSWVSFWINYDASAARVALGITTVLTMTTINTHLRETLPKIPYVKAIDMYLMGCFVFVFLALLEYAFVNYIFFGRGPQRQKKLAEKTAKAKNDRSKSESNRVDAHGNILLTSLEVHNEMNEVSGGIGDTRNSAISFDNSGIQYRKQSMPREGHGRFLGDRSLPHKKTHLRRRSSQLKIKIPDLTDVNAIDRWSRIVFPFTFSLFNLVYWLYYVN
T1 sequence (P18507 40-467 partner limits assumed): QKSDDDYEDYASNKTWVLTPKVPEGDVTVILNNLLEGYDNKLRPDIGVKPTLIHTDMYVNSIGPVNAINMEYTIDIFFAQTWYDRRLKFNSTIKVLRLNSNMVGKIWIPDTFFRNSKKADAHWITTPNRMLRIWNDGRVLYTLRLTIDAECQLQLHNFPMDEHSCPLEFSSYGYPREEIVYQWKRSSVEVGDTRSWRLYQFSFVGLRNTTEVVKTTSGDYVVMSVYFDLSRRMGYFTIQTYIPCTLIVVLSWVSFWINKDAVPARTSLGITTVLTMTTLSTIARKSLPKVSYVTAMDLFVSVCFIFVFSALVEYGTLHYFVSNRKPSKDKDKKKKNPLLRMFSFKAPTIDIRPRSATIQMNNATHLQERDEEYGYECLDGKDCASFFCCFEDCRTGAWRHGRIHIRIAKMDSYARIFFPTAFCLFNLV
Assay: Human GABA-A receptor IonFlux HT agonist assay (Cl-flux), α2β3γ2
Assay type: cell-based
Conditions: for Normalized Percentage Activation, Mean: hGABAA α2β3γ2
Excerpt: (FIG. 12A) Six additions of 0.33% DMSO for 2 seconds were introduced to the cells to act as a time matched vehicle control for the agonist. (FIG. 12B) Note: The test compound was applied over two ‘experimental patterns’ in increasing concentrations. […] Time-matched negative and reference compound data are included for comparison.
[…] Aliquots were taken out and diluted 300× into external buffer to give the final assay concentration. All wells included a final DMSO concentration of 0.33% including all control wells.
All recordings were obtained from a holding potential of −60 mV. The compound addition sequence that was used for all additions was the same for all assays. […] Each test concentration of compound was applied for 2 seconds followed by 30 seconds wash. The process was repeated with the next ascending concentration of test compound up to a maximum of six concentrations per well (FIG. 14).
Peak inward currents in response to the additions of compound were measured. […] All data were first exported to an Excel compatible data file and then analyzed using Graph Pad Prism software.

Row | SMILES | EC50 [µM] | Normalized Percentage Activation, Mean (0.3 μM) [%] | Normalized Percentage Activation, Mean (1 μM) [%] | Normalized Percentage Activation, Mean (3 μM) [%] | Normalized Percentage Activation, Mean (10 μM) [%] | Normalized Percentage Activation, Mean (30 μM) [%] | Normalized Percentage Activation, Mean (100 μM) [%] | Normalized Percentage Activation, Mean (300 μM) [%] | Normalized Percentage Activation, Mean (1000 μM) [%] | agonism of α2β3γ2-containing GABAA receptor (in words) (hydrochloride) | EC50 (GABAA receptor chloride flux assay, read-out: Estimated EC50 (μM), activation of α2β3γ2-containing GABAA receptors) [µM]
1 | NC1C=C(C(=O)O)CCC1 (stereo not shown) [Compound 5, 3-aminocyclohex-1-enecarboxylic acid hydrochloride] | > 1000 | 1.42 | 1.28 | 1.23 | 1.56 | 1.48 | 1.96 | 1.77 | 1.64 | not an agonist; also recorded: no agonism | –
2 | O=C(O)C1=CCNCC1 [Isoguvacine, isoguvacine] | – | 2.09 | 4.69 | 10.43 | 32.71 | 63.48 | 85.91 | 99.01 | 100.05 | – | 18.7
